Data set [1] concerns the target T1, Human vanilloid receptor (hVR1) (Homo sapiens, UniProt Q8NER1).
T1 construct: expressed in transfected cells
Description: Capsaicin-induced Ca2+ influx in the human VR1-transfected CHO cell line (Assay 1). It counts as cell-based. To be noted: human VR1-CHOluc9aeq cells, stimulation with 10 nM capsaicin, Fluo-3 fluorescence (FDSS-3000); read-out: Activity Class (IC50). The text has this:
[Measurement of Capsaicin-induced Ca^2+ influx in the Human VR1-transfected CHO Cell Line] (Assay 1)
• (1) Establishment of the Human VR1-CHOluc9aeq Cell Line • Human vanilloid receptor (hVR1) cDNA was cloned from libraries of axotomized dorsal root ganglia (WO 00/29577). The cloned hVR1 cDNA was constructed with pcDNA3 vector and transfected into a CHOluc9aeq cell line. The cell line contains aequorin and CRE-luciferase reporter genes as read-out signals. The transfectants were cloned by limiting dilution in selection medium (DMEM/F12 medium (Gibco BRL) supplemented with 10%
FCS, 1.4 mM Sodium pyruvate, 20 mM HEPES, 0.15% Sodium bicarbonate, 100 U/ml penicillin, 100 μg/ml streptomycin, 2 mM glutamine, non-essential amino acids and 2 mg/ml G418). Ca^2+ influx was examined in the capsaicin-stimulated clones. A high responder clone was selected and used for furter experiments in the project. The human VR1-CHOluc9aeq cells were maintained in the selection medium and passaged every 3-4 days at 1-2.5×10^5 cells/flask ([…]). • (2) Measurement of Ca^2+ Influx Using FDSS-3000 • Human VR1-CHOluc9aeq cells were suspended in a culture medium which is the same as the selection medium except for G418 and seeded at a density of 1,000 cells per well into 384-well plates (black walled clear-base/Nalge Nunc International). Following the culture for 48 hrs the medium was changed to 2 μM Fluo-3 AM (Molecular Probes) and 0.02% Puronic F-127 in assay buffer (Hank's balanced salt solution (HBSS), 17 mM HEPES (pH7.4), 1 mM Probenecid, 0.1% BSA) and the cells were incubated for 60 min at 25° C. After washing twice with assay buffer the cells were incubated with a test compound or vehicle for 20 min at 25° C. Mobilization of cytoplasmic Ca^2+ was measured by FDSS-3000 (λex=488 nm, λem=540 nm/Hamamatsu Photonics) for 60 sec after the stimulation with 10 nM capsaicin. Integral R was calculated and compared with controls. [Measurement of the Capsaicin-induced Ca^2+ Influx in Primary Cultured Rat Dorsal Root Ganglia Neurons] (Assay 2) • (1) Preparation of Rat Dorsal Root Ganglia Neurons • New born Wister rats (5-11 days) were sacrificed and dorsal root ganglia (DRG) was removed. DRG was incubated with 0.1% trypsin (Gibco BRL) in PBS(−) (Gibco BRL) for 30 min at 37° C., then a half volume of fetal calf serum (FCS) was added and the cells were spun down. The DRG neuron cells were resuspended in Ham F12/5% FCS/5% horse serum (Gibco BRL) and dispersed by repeated pipetting and passing through 70 μm mesh (Falcon). The culture plate was incubated for 3 hours at 37° C. to remove contaminating Schwann cells. Non-adherent cells were recovered and further cultured in laminin-coated 384 well plates (Nunc) at 1×10^4 cells/50 μl/well for 2 days in the presence of 50 ng/ml recombinant rat NGF (Sigma) and 50 μM 5-fluorodeoxyuridine (Sigma). • (2) Ca^2+ Mobilization Assay • DRG neuron cells were washed twice with HBSS supplemented with 17 mM BEPES (pH 7.4) and 0.1% BSA. After incubating with 2 μM fluo-3AM (Volectuar Probe), 0.02% PF127 (Gibco BRL) and 1 mM probenecid (Sigma) for 40 min at 37° C., cells were washed 3 times. The cells were incubated with VR1 antagonists or vehicle (dimethylsulfoxide) and then with 1 μM capsaicin in FDSS-6000 (λex=480 mn, λem=520 nm/Hamamatsu Photonics). The fluorescence changes at […] were monitored for 2.5 min. Integral R was calculated and compared with controls. [Organ Bath Assay to Measure the Capsaicin-induced Bladder Contraction] (Assay 3) • Male Wistar rats (10 week old) were anesthetized with ether and sacrificed by dislocating the necks. The whole urinary bladder was excised and placed in oxygenated Modified Krebs-Henseleit solution (pH 7.4) of the following composition (112 mM NaCl, 5.9 mM KCl, 1.2 mM MgCl2, 1.2 mM NaH2PO4, 2 mM CaCl2, […], 12 mM glucose). Contractile responses of the urinary bladder were studied as described previously [Maggi C A et al: Br. J. Pharmacol. 108: 801-805, 1993]. […]

T1 sequence (Q8NER1 whole entry): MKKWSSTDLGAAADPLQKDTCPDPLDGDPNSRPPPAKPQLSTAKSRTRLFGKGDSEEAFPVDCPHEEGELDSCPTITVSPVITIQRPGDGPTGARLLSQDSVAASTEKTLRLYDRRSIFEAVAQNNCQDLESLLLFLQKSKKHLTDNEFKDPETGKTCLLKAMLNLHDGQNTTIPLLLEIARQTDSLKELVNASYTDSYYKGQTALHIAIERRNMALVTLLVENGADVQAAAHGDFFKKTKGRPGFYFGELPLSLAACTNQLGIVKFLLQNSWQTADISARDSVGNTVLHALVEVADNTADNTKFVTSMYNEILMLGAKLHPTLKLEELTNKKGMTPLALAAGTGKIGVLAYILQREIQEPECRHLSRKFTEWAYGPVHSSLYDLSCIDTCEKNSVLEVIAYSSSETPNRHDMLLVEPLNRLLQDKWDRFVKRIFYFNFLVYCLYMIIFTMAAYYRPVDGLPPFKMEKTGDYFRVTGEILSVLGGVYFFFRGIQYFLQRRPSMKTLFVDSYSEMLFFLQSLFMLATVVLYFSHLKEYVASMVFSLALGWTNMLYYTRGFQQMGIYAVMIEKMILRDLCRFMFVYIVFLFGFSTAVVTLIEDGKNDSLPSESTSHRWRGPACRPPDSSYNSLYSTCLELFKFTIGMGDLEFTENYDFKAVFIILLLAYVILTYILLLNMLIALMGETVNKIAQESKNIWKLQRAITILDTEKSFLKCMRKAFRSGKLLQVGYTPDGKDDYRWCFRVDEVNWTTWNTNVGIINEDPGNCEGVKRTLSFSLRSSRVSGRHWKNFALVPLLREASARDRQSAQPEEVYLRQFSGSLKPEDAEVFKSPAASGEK

The IC50 is the concentration that inhibits the measured activity by half. Take `O=C(Nc1cccc2c1C[C@@H](O)CC2)C1CCN(c2ccc(C(F)(F)F)cc2Cl)CC1` [Example 1-1, 1-[2-Chloro-4-(trifluoromethyl)phenyl]-N-[(7S)-7-hydroxy-5,6,7,8-tetrahydro-naphthalen-1-yl]piperidine-4-carboxamide]: the IC50 in data set [1] is under 0.1 µM.

Take `O=C(Nc1cccc2c1C[C@H](O)CC2)C1CCN(c2cccc(Cl)c2)CC1` [Example 1-2, 1-[3-Chlorophenyl]-N-[(7R)-7-hydroxy-5,6,7,8-tetrahydronaphthalen-1-yl]piperidine-4-carboxamide]: in data set [1], the IC50 is under 0.1 µM.

Usually melting point stands for the temperature of the solid-liquid transition. `O=C(Nc1cccc2c1CC(O)CC2)C1CCN(c2ccccc2Cl)CC1` (stereo not shown) [Example 1-3] came in with a melting point of 210 °C. Besides, the IC50 in data set [1] is under 0.1 µM.

Turning to `O=C(Nc1cccc2c1CC(O)CC2)C1CCN(c2ccccc2[N+](=O)[O-])CC1` (stereo not shown) [Example 1-4, N-(7-Hydroxy-5,6,7,8-tetrahydronaphthalen-1-yl)-1-(2-nitrophenyl)piperidine-4-carboxamide], the melting point was found to be 170 °C. In data set [1], the IC50 was under 0.1 µM.

On to `O=C(Nc1cccc2c1CC(O)CC2)C1CCN(c2ccc(C(F)(F)F)cc2[N+](=O)[O-])CC1` (stereo not shown) [Example 1-5, N-(7-Hydroxy-5,6,7,8-tetrahydronaphthalen-1-yl)-1-[2-nitro(trifluoromethyl)phenyl]piperidine-4-carboxamide], for which the melting point was found to be 218 °C. Also, in data set [1], the IC50 was under 0.1 µM.

`O=C(Nc1cccc2c1CC(O)CC2)C1CCN(c2ccccc2F)CC1` (stereo not shown) [Example 1-6, 1-(2-Fluorophenyl)-N-(7-hydroxy-5,6,7,8-tetrahydronaphthalen-1-yl)piperidine-4-carboxamide] returned a melting point of 207 °C. For the same compound, the IC50 in data set [1] was under 0.1 µM.

Turning to `O=C(Nc1cccc2c1CC(O)CC2)C1CCN(c2ccc(F)cc2)CC1` (stereo not shown) [Example 1-7, 1-(4-Fluorophenyl)-N-(7-hydroxy-5,6,7,8-tetrahydronaphthalen-1-yl)piperidine-4-carboxamide], the melting point is 205 °C. Further, the IC50 in data set [1] was under 0.1 µM.

Turning to `O=C(Nc1cccc2c1CC(O)CC2)C1CCN(c2ccc(Cl)cc2C(F)(F)F)CC1` (stereo not shown) [Example 1-8, 1-[4-Chloro-2-(trifluoromethyl)phenyl]-N-(7-hydroxy-5,6,7,8-tetrahydronaphthalen-1-yl)piperidine-4-carboxamide], the melting point was 182 °C. The IC50 in data set [1] is under 0.1 µM.

For `O=C(Nc1cccc2c1CC(O)CC2)C1CCN(c2ccc(C(F)(F)F)cc2)CC1` (stereo not shown) [Example 1-9, N-(7-Hydroxy-5,6,7,8-tetrahydronaphthalen-1-yl)-1-[4-(trifuoromethyl)phenyl]piperidine-4-carboxamide], the melting point worked out at 222 °C. The IC50 in data set [1] is under 0.1 µM.

For the compound `O=C(Nc1cccc2c1CC(O)CC2)C1CCN(c2ccc(C(F)(F)F)cc2Cl)CC1` (stereo not shown) [Example 1-10, 1-[2-Chloro-4-(trifluoromethyl)phenyl]-N-(7-hydroxy-5,6,7,8-tetrahydronaphthalen-1-yl)piperidine-4-carboxamide], the melting point amounted to 226 °C. Besides, the IC50 in data set [1] is under 0.1 µM.

As for `O=C(Nc1cccc2c1C[C@H](O)CC2)C1CCN(c2ccc(F)cc2)CC1` [Example 1-11, 1-(4-Fluorophenyl)-N-[(7R)-7-hydroxy-5,6,7,8-tetrahydronaphthalen-1-yl]piperidine-4-carboxamide], the melting point turned out to be 205 °C. In data set [1], the IC50 is under 0.1 µM.

In the case of `O=C(Nc1cccc2c1C[C@@H](O)CC2)C1CCN(c2ccc(F)cc2)CC1` [Example 1-12, 1-(4-Fluorophenyl)-N-[(7S)-7-hydroxy-5,6,7,8-tetrahydronaphthalen-1-yl]piperidine-4-carboxamide], the melting point was 205 °C. In addition, the IC50 in data set [1] was under 0.1 µM.

As for `O=C(Nc1cccc2c1C[C@H](O)CC2)C1CCN(c2ccccc2)CC1` [Example 1-14], in data set [1], the IC50 is under 0.1 µM.

`O=C(Nc1cccc2c1C[C@H](O)CC2)C1CCN(c2cccc(C(F)(F)F)c2)CC1` [Example 1-15, N-[(7R)-7-Hydroxy-5,6,7,8-tetrahydronaphthalen-1-yl]-1-[3-trifluoromethyl-phenyl]piperidine-4-carboxamide]: the IC50 in data set [1] is under 0.1 µM.

As to `O=C(Nc1cccc2c1C[C@H](O)CC2)C1CCN(c2cccc(OC(F)(F)F)c2)CC1` [Example 1-16, N-[(7R)-7-Hydroxy-5,6,7,8-tetrahydronaphthalen-1-yl]-1-[3-trifluoromethoxy-phenyl]piperidine-4-carboxamide], the IC50 in data set [1] is under 0.1 µM.

Consider `O=C(Nc1cccc2c1C[C@H](O)CC2)C1CCN(c2ccc(Cl)cc2Cl)CC1` [Example 1-17, 1-[2,4-Dichlorophenyl]-N-[(7R)-7-hydroxy-5,6,7,8-tetrahydronaphthalen-1-yl]piperidine-4-carboxamide], for which, in data set [1], the IC50 was under 0.1 µM.

As to `O=C(Nc1cccc2c1C[C@H](O)CC2)C1CCN(c2ccc(OC(F)(F)F)c(OC(F)(F)F)c2)CC1` [Example 1-18, 1-[3,4-Bis[trifluoromethoxy]phenyl]-N-[(7R)-7-hydroxy-5,6,7,8-tetrahydro-naphthalen-1-yl]piperidine-4-carboxamide], the IC50 in data set [1] was under 0.1 µM.

Turning to `O=C(Nc1cccc2c1C[C@H](O)CC2)C1CCN(c2ccc(OC(F)(F)F)cc2)CC1` [Example 1-19, N-[(7R)-7-Hydroxy-5,6,7,8-tetrahydronaphthalen-1-yl]-1-[4-trifluoromethoxy-phenyl]piperidine-4-carboxamide], the concentration for half-maximal inhibition (IC50) in data set [1] is under 0.1 µM.

Take `O=C(Nc1cccc2c1C[C@H](O)CC2)C1CCN(c2nccc(C(F)(F)F)n2)CC1` [Example 1-20, N-[(7R)-7-Hydroxy-5,6,7,8-tetrahydronaphthalen-1-yl]-1-[4-trifluoromethyl-pyrimidin-2-yl]-piperidine-4-carboxamide]: the IC50 in data set [1] is under 0.1 µM.

Regarding `O=C(Nc1cccc2c1C[C@H](O)CC2)C1CCN(c2ncc(Cl)cn2)CC1` [Example 1-21, 1-[5-Chloropyrimidin-2-yl]-N-[(7R)-7-hydroxy-5,6,7,8-tetrahydronaphthalen-1-yl]piperidine-4-carboxamide], the IC50 in data set [1] was under 0.1 µM.

Regarding `O=C(Nc1cccc2c1C[C@H](O)CC2)C1CCN(c2ccc([N+](=O)[O-])cc2Cl)CC1` [Example 1-22, 1-[2-Chloro-4-nitrophenyl]-N-[(7R)-7-hydroxy-5,6,7,8-tetrahydronaphthalen-1-yl]piperidine-4-carboxamide], the IC50 in data set [1] is under 0.1 µM.

On to `CC(=O)Nc1cc(C(F)(F)F)ccc1N1CCC(C(=O)Nc2cccc3c2C[C@H](O)CC3)CC1` [Example 1-23], for which, in data set [1], the IC50 is under 0.1 µM.

As to `O=C(Nc1cccc2c1C[C@H](O)CC2)C1CCN(c2ccc(C(F)(F)F)cn2)CC1` [Example 1-24, N-[(7R)-7-Hydroxy-5,6,7,8-tetrahydronaphthalen-1-yl]-1-[5-(trifluoromethyl)-pyridin-2-yl]piperidine-4-carboxamide], the IC50 in data set [1] was under 0.1 µM.

Consider `O=C(Nc1cccc2c1C[C@H](O)CC2)C1CCN(c2ccc(C(F)(F)F)cc2)CC1` [Example 1-25, N-[(7R)-7-Hydroxy-5,6,7,8-tetrahydronaphthalen-1-yl]-1-[4-trifluoromethyl-phenyl]piperidine-4-carboxamide], for which the IC50 in data set [1] is under 0.1 µM.

Values taken from patent publication US7615557B2, “Tetrahydro-naphthalene and urea derivatives” (Xention Limited, priority 2003, dated 2009).
